Experimental findings from patent US10183013B2, “Cyclic sulfonamide containing derivatives as inhibitors of hedgehog signaling pathway” (NantBioScience, Inc., priority 2012, dated 2019) are described below.

This assay has as its system Hedgehog signalling (Gli-bla NIH3T3 cells, mShh stimulated). As to the kind of experiment: Hedgehog signalling inhibition assay (Gli-Bla reporter assay in NIH 3T3 cells). The class given is cell-based. As to conditions: Mus musculus. As to the method:
Hedgehog signalling inhibition assays. The following table 2 represents the average EC50 values for particular compounds of the inventions. Gli-bla NIH3T3 cells (7500 cells/well) were plated the day prior to the assay in a 384-well and 96-format in complete growth medium. […] Cells were stimulated with mShh for 24 hours and then loaded with LiveBLAzer™-FRET B/G Substrate for 3 hours. Emission values at 460 nm and 530 nm were obtained using a standard fluorescence plate reader and the 460/530 Ratios plotted for each treatment (n=4 for each data point).
J. Cancer, 2011, 30(7):472-81).
(In a reporter assay the amount or activity of a reporter protein is the signal.)

Like-named read-outs stand apart in the source and are kept apart here.

`O=C(Nc1ccc(Cl)c(-c2ccc3cnccc3n2)c1)c1ccc(N2CCCCS2(=O)=O)cc1` [Example 96]: under “NIH3T3, 24 h, read-out: EC50”, the EC50 (as a rule, the concentration that produces a half-maximal response) is under 10 nM. Same read-out and setting: to `O=C(Nc1ccc(Cl)c(NC(=O)c2cccc(Cl)c2)c1)c1ccc(N2CCCCS2(=O)=O)cc1` [Example 128] belongs under 10 nM; to `O=C(Nc1ccc(Cl)c(-c2nccc3ncccc23)c1)c1ccc(N2CCCCS2(=O)=O)cc1Cl` [Example 103], under 10 nM. For the molecule `O=C(Nc1ccc(Cl)c(NC(=O)c2cccc(Cl)c2)c1)c1ccc(N2CCCS2(=O)=O)c(Cl)c1` [Example 132], for the setting “NIH3T3, 24 h, read-out: EC50”, the EC50 was under 10 nM. For `O=C(Nc1ccc(Cl)c(-c2nccc3ncccc23)c1)c1ccc(N2CCOCS2(=O)=O)cc1Cl` [Example 105, 2-chloro-N-(4-chloro-3-(1,6-naphthyridin-5-yl)phenyl)-4-(3,3-dioxido-1,3,4-oxathiazinan-4-yl)benzamide], the EC50 (NIH3T3, 24 h, read-out: EC50) is under 10 nM. On to `O=C(Nc1ccc(Cl)c(-c2ccc3ccccc3n2)c1)c1ccc(N2CCCCS2(=O)=O)cc1Cl` [Example 99], for which the EC50 (NIH3T3, 24 h, read-out: EC50) is under 10 nM. Still for that read-out and setting: to `O=C(Nc1ccc(Cl)c(Oc2cccc(Cl)c2)c1)c1ccc(N2CCCS2(=O)=O)cc1Cl` [Example 131] belongs under 10 nM; to `O=C(Nc1cc(NC(=O)c2ccc(N3CCOCS3(=O)=O)cc2Cl)ccc1Cl)c1ccccc1` [Example 122, N-(3-benzamido-4-chlorophenyl)-2-chloro-4-(3,3-dioxido-1,3,4-oxathiazinan-4-yl)benzamide], under 10 nM. For the molecule `O=C(Nc1ccc(Cl)c(-c2ccc3ncccc3n2)c1)c1ccc(N2CCCS2(=O)=O)cc1` [Example 88], the 50% effective concentration (EC50) (NIH3T3, 24 h, read-out: EC50) came out at 10000 nM.

Turning to `CC(=O)Nc1cc(NC(=O)c2ccc(N3CCCS3(=O)=O)cc2Cl)ccc1Cl` [Example 140], the concentration for a half-maximal effect (EC50) (NIH3T3, 24 h, read-out: EC50) was 1000 nM. Take `O=C(Nc1ccc(Cl)c(NC(=O)c2cccnc2)c1)c1ccc(N2CCCS2(=O)=O)c(F)c1` [Example 119]: where the note is “NIH3T3, 24 h, read-out: EC50”, the EC50 is under 10 nM. The same measure, in the same setting: to `O=C(Nc1ccc(Cl)c(-c2ccc3cnccc3n2)c1)c1ccc(N2CCOCS2(=O)=O)cc1Cl` [Example 107, 2-chloro-N-(4-chloro-3-(1,6-naphthyridin-2-yl)phenyl)-4-(3,3-dioxido-1,3,4-oxathiazinan-4-yl)benzamide] belongs under 10 nM; to `O=C(Nc1ccc(Cl)c(-c2nccc3ncccc23)c1)c1ccc(N2CCOCS2(=O)=O)cc1F` [Example 116, N-(4-chloro-3-(1,6-naphthyridin-5-yl)phenyl)-4-(3,3-dioxido-1,3,4-oxathiazinan-4-yl)-2-fluorobenzamide], under 10 nM; to `O=C(Nc1ccc(Cl)c(-c2ccccn2)c1)c1ccc(N2CCOCS2(=O)=O)cc1Cl` [Example 85, 2-chloro-N-(4-chloro-3-(pyridin-2-yl)phenyl)-4-(3,3-dioxido-1,3,4-oxathiazinan-4-yl)benzamide], under 10 nM. On the same count and under the same terms, to `O=C(Nc1ccc(Cl)c(-c2nccc3ccccc23)c1)c1ccc(N2CCOCS2(=O)=O)cc1` [Example 108, N-(4-chloro-3-(isoquinolin-1-yl)phenyl)-4-(3,3-dioxido-1,3,4-oxathiazinan-4-yl)benzamide] belongs 11000 nM; to `O=C(Nc1ccc(Cl)c(-c2ncc3ccccc3n2)c1)c1ccc(N2CCCCS2(=O)=O)cc1` [Example 95], under 10 nM. `O=C(Nc1cc(NC(=O)c2ccc(N3CCOCS3(=O)=O)cc2Cl)ccc1Cl)c1nccs1` [Example 127, N-(2-chloro-5-(2-chloro-4-(3,3-dioxido-1,3,4-oxathiazinan-4-yl)benzamido)phenyl)thiazole-2-carboxamide]: the EC50 (NIH3T3, 24 h, read-out: EC50) is under 10 nM. On the same count and under the same terms, to `O=C(Nc1ccc(Cl)c(-c2ccc3ncccc3n2)c1)c1ccc(N2CCOCS2(=O)=O)cc1Cl` [Example 106, 2-chloro-N-(4-chloro-3-(1,5-naphthyridin-2-yl)phenyl)-4-(3,3-dioxido-1,3,4-oxathiazinan-4-yl)benzamide] belongs under 10 nM.

As to `O=C(Nc1ccc(Cl)c(-c2nccc3ncccc23)c1)c1ccc(N2CCOCS2(=O)=O)cc1` [Example 109, N-(4-chloro-3-(1,6-naphthyridin-5-yl)phenyl)-4-(3,3-dioxido-1,3,4-oxathiazinan-4-yl)benzamide], for the setting “NIH3T3, 24 h, read-out: EC50”, the EC50 is under 10 nM. The same measure, in the same setting: to `O=C(Nc1ccc(Cl)c(-c2ccc3ncccc3n2)c1)c1ccc(N2CCCCS2(=O)=O)cc1` [Example 97] belongs under 10 nM.

Take `O=C(Nc1cc(NC(=O)c2ccc(N3CCCS3(=O)=O)cc2Cl)ccc1Cl)c1ccccc1` [Example 134]: under “NIH3T3, 24 h, read-out: EC50”, the EC50 is under 10 nM. Take `O=C(Nc1ccc(Cl)c(-c2nccc3ccccc23)c1)c1ccc(N2CCCCS2(=O)=O)c(Cl)c1` [Example 115]: the EC50 (NIH3T3, 24 h, read-out: EC50) is under 10 nM. For `O=C(Nc1ccc(Cl)c(-c2nccc3ccccc23)c1)c1ccc(N2CCCS2(=O)=O)cc1` [Example 86], under “NIH3T3, 24 h, read-out: EC50”, the EC50 was 28000 nM. On to `Cc1ccc(NC(=O)c2ccc(N3CCCS3(=O)=O)cc2Cl)cc1-c1nccc2ccccc12` [Example 111], for which, under “NIH3T3, 24 h, read-out: EC50”, the EC50 is under 10 nM.

With `O=C(Nc1ccc(Cl)c(-c2ccccn2)c1)c1ccc(N2CCOCS2(=O)=O)cc1F` [Example 123, N-(4-chloro-3-(pyridin-2-yl)phenyl)-4-(3,3-dioxido-1,3,4-oxathiazinan-4-yl)-2-fluorobenzamide], under “NIH3T3, 24 h, read-out: EC50”, the concentration for a half-maximal effect (EC50) was under 10 nM.

Take `O=C(Nc1ccc(Cl)c(-c2nccc3ccccc23)c1)c1ccc(N2CCOCS2(=O)=O)cc1Cl` [Example 104, 2-chloro-N-(4-chloro-3-(isoquinolin-1-yl)phenyl)-4-(3,3-dioxido-1,3,4-oxathiazinan-4-yl)benzamide]: the EC50 (NIH3T3, 24 h, read-out: EC50) was under 10 nM. Take `CS(=O)(=O)c1ccc(C(=O)Nc2ccc(Cl)c(-c3ccccn3)c2)c(Cl)c1` [GDC-0449, reference compound]: the half-maximal effective concentration (EC50) (NIH3T3, NIH 3T3 cells, read-out: Gli-Bla reporter assay (EC50)) amounted to 7 nM.

For `O=C(Nc1cc(NC(=O)c2ccc(N3CCCS3(=O)=O)cc2Cl)ccc1Cl)c1cccc(Cl)c1` [Example 120], the EC50 (NIH3T3, 24 h, read-out: EC50) is under 10 nM.

As for `O=C(Nc1ccc(Cl)c(Oc2cccc(Cl)c2)c1)c1ccc(N2CCCS2(=O)=O)c(F)c1` [Example 139], the EC50 (NIH3T3, 24 h, read-out: EC50) is under 10 nM. As to `O=C(Nc1ccc(Cl)c(Oc2cccc(Cl)c2)c1)c1ccc(N2CCOCS2(=O)=O)cc1Cl` [Example 137], for the setting “NIH3T3, 24 h, read-out: EC50”, the EC50 is under 10 nM. For the molecule `O=C(Nc1ccc(Cl)c(NC(=O)c2ccccc2Cl)c1)c1ccc(N2CCOCS2(=O)=O)cc1Cl` [Example 133, 2-chloro-N-(4-chloro-3-(2-chlorobenzamido)phenyl)-4-(3,3-dioxido-1,3,4-oxathiazinan-4-yl)benzamide], the EC50 (NIH3T3, 24 h, read-out: EC50) was under 10 nM. Turning to `O=C(Nc1ccc(Cl)c(-c2ncc3ccccc3n2)c1)c1ccc(N2CCCS2(=O)=O)cc1` [Example 89], the EC50 (NIH3T3, 24 h, read-out: EC50) is 14000 nM.

With `O=C(Nc1cc(NC(=O)c2ccc(N3CCOCS3(=O)=O)cc2F)ccc1Cl)c1ccccc1` [Example 124, N-(3-benzamido-4-chlorophenyl)-4-(3,3-dioxido-1,3,4-oxathiazinan-4-yl)-2-fluorobenzamide], the EC50 (NIH3T3, 24 h, read-out: EC50) was under 10 nM. On to `O=C(Nc1ccc(Cl)c(-c2ncc3ccccc3n2)c1)c1ccc(N2CCCCS2(=O)=O)cc1Cl` [Example 100], for which the EC50 (NIH3T3, 24 h, read-out: EC50) was under 10 nM. Take `O=C(Nc1ccc(Cl)c(-c2nccc3ncccc23)c1)c1ccc(N2CCCS2(=O)=O)c(Cl)c1` [Example 113]: the EC50 (NIH3T3, 24 h, read-out: EC50) is under 10 nM. Regarding `O=C(Nc1ccc(Cl)c(-c2ccccn2)c1)c1ccc(N2CCCS2(=O)=O)cc1` [Example 84], under “NIH3T3, 24 h, read-out: EC50”, the EC50 was under 10 nM. Consider `O=C(Nc1ccc(Oc2cccc(Cl)c2)cc1)c1ccc(N2CCCS2(=O)=O)cc1Cl` [Example 141], for which, for the setting “NIH3T3, 24 h, read-out: EC50”, the EC50 was under 10 nM. As for `O=C(Nc1cc(NC(=O)c2ccc(N3CCOCS3(=O)=O)cc2Cl)ccc1Cl)c1ccc(Cl)cc1` [Example 126, 2-chloro-N-(4-chloro-3-(4-chlorobenzamido)phenyl)-4-(3,3-dioxido-1,3,4-oxathiazinan-4-yl)benzamide], the EC50 (NIH3T3, 24 h, read-out: EC50) was under 10 nM. As for `O=C(Nc1ccc(Cl)c(-c2ccc3ncccc3n2)c1)c1ccc(N2CCCCS2(=O)=O)cc1Cl` [Example 102], the EC50 (NIH3T3, 24 h, read-out: EC50) is under 10 nM.

As to `O=C(Nc1cc(NC(=O)c2ccc(N3CCCS3(=O)=O)cc2Cl)ccc1Cl)c1cccnc1` [Example 135, N-(2-chloro-5-(2-chloro-4-(1,1-dioxidoisothiazolidin-2-yl)benzamido)phenyl) nicotinamide], the EC50 (NIH3T3, 24 h, read-out: EC50) is under 10 nM.

Take `O=C(Nc1ccc(Cl)c(NC(=O)c2cccc(Cl)c2)c1)c1ccc(N2CCCS2(=O)=O)cc1` [Example 129]: the EC50 (NIH3T3, 24 h, read-out: EC50) was under 10 nM. For `O=C(Nc1ccc(Cl)c(-c2nccc3ccccc23)c1)c1ccc(N2CCOCS2(=O)=O)cc1F` [Example 117, N-(4-chloro-3-(isoquinolin-1-yl)phenyl)-4-(3,3-dioxido-1,3,4-oxathiazinan-4-yl)-2-fluorobenzamide], the EC50 (NIH3T3, 24 h, read-out: EC50) is 16000 nM. Still for that read-out and setting: to `O=C(Nc1ccc(Cl)c(-c2ccc3ccccc3n2)c1)c1ccc(N2CCCS2(=O)=O)cc1` [Example 87] belongs 3000 nM. `O=C(Nc1ccc(Cl)c(-c2nccc3ccccc23)c1)c1ccc(N2CCCCS2(=O)=O)cc1Cl` [Example 98]: the EC50 (NIH3T3, 24 h, read-out: EC50) was under 10 nM. For `O=C(Nc1ccc(Cl)c(-c2nccc3ccccc23)c1)c1ccc(N2CCCS2(=O)=O)c(Cl)c1` [Example 114], the EC50 (NIH3T3, 24 h, read-out: EC50) is under 10 nM. On to `O=C(Nc1ccc(Cl)c(-c2ccc3ccccc3n2)c1)c1ccc(N2CCCCS2(=O)=O)cc1` [Example 93], for which the concentration for a half-maximal effect (EC50) (NIH3T3, 24 h, read-out: EC50) was under 10 nM. Regarding `O=C(Nc1cc(NC(=O)c2ccc(N3CCOCS3(=O)=O)cc2Cl)ccc1Cl)c1cccc(Cl)c1` [Example 130], the EC50 (NIH3T3, 24 h, read-out: EC50) was under 10 nM. With `O=C(Nc1ccc(Cl)c(-c2nccc3ccccc23)c1)c1ccc(N2CCCCS2(=O)=O)cc1` [Example 94], the EC50 (NIH3T3, 24 h, read-out: EC50) is under 10 nM.

As for `CC(=O)Nc1cc(NC(=O)c2ccc(N3CCOCS3(=O)=O)cc2Cl)ccc1Cl` [Example 143], the EC50 (NIH3T3, 24 h, read-out: EC50) is under 10 nM. Regarding `O=C(Nc1ccc(Cl)c(NC(=O)c2ccccc2)c1)c1ccc(N2CCCS2(=O)=O)c(F)c1` [Example 118], the EC50 (NIH3T3, 24 h, read-out: EC50) is under 10 nM.
